Test results from US8492422B2, “Ester pro-drugs of [3-(1-(1H-imidazol-4-yl)ethyl)-2-methylphenyl] methanol for treating skin diseases and conditions” (Allergan, Inc., priority 2010, dated 2013).

Assay: In Vitro Human Skin Permeability Assay (static Franz diffusion cells)
Conditions: in vitro Franz diffusion cell; 0.65% (Compound 2) and 0.55% (Compound 1) (w/w) dose; 48 hour dose exposure; 5 mg formulation/cm^2
Method: To assure the integrity of each skin section, its permeability to tritiated water was determined before application of the test products.

With Cc1c(COC(=O)C(C)C)cccc1[C@H](C)c1c[nH]cn1 [Compound 1, iso-Butyric acid 3-[(S)-1-(1H-imidazol-4-yl)-ethyl]-2-methyl-benzyl ester] the “penetration into and through ex vivo human trunk skin (percutaneous absorption)” value was “penetrate into and through ex vivo human trunk skin”.
